Like-named read-outs stand apart in the source and are kept apart here. Blank lines part the entries; values can stand above or below the molecule they belong to.
Tests used:
[1] = tested on: HeLa cells; assay: Prestoblue cell viability assay on HeLa cells (compounds alone and with paclitaxel); assay type: cell-based; details: for GI50: Homo sapiens, HeLa, 72 h
Experimental: (§1) Cell viability was analyzed using the colorimetric Prestoblue assay (Invitrogen, #A13262). Cells were seeded in 96 well microplates (Greiner, #655077) at a density of 2,500 cells per well and allowed to adhere for 24 h before being treated for 72 h with either DMSO (0.1% final concentration) or drugs at indicated concentrations. After the 72 h treatment, 10 μL A Prestoblue was added to each well and cells were incubated for another 45 min. The absorbance of each well was measured using FLUOstar Optima microplate reader (Excitation, 544 nm; Emission, 580 nm).
First, the cytotoxicity on HeLa cells of compounds (I-a), (I-c) (I-f), (I-h), (I-e), (I-m), (I-n) and (I-s) was assessed with the above described “prestoblue” assay.
Then, HeLa cells were treated during 72 hours with different concentrations of a mixture of paclitaxel (0.05, 0.1, 0.25, 0.5, 1, 2.5, 5 nM) and compounds (I-a), (I-f), (I-h), (I-e), (I-m), (I-n), (I-c) and (I-s).

[2] = tested on: HeLa cells; assay: FITC Annexin V apoptosis assay by flow cytometry; assay type: cell-based
Experimental: Apoptosis assay was performed with FITC Annexin V Apoptosis Detection Kit I (BD Biosciences, #556547) using flow cytometry and analyzed by FCS express software.

[3] = tested on: 4T1 cells; assay: Prestoblue cell viability assay on murine cancer cells; assay type: cell-based; details: mice breast cancer cell line (4T1 cells), 72 h
Experimental: as §1, with “μL” for “μL A”

[4] = tested on: microtubule dynamics in GFP-EB3 transfected cells; assay: Microtubule dynamic instability by time-lapse fluorescence microscopy; assay type: cell-based; details: 25 μM
Experimental: The effect of a high dose (25 μM) of compound (I-a) on microtubule dynamic instability parameters was measured using time-lapse fluorescence microscopy on GFP-EB3 transfected cells (Table 1).

[5] = tested on: HeLa cells; assay: Immunofluorescence of microtubules and DNA; assay type: cell-based
Experimental: The effect of a compound of formula (I) on cell cycle and mitosis of HeLa cells was analyzed by flow cytometry and immunofluorescence.
For immunofluorescence analysis, cells were grown for 48 hours on glass coverslips placed in 24-wells microplates. When cells reached 70% confluence the medium was replaced with a fresh one supplemented with compound (I-a). After a 5-hour exposure to compound (I-a), cells were fixed and permeabilized with −20° C. absolute methanol for 6 min. After washing and saturation with 3% BSA/PBS, cells were incubated for 45 min at room temperature (RT) with anti-alpha-tubulin antibody (1:4000). Cells were washed twice again and subsequently incubated with Alexa 488 conjugated anti-mouse antibody (1:1000) for 30 min at RT. DNA was stained with 20 μmol·L^−1 Hoechst 33342 and coverslips were mounted on microscopic slides with Mowiol 4-88 (Calbiochem, #475904). Images were captured with a Zeiss AxioimagerM2 microscope equipped with the acquisition software AxioVision and analyzed using the Fiji software.

[6] = tested on: HeLa cells; assay: Cell cycle distribution by flow cytometry; assay type: cell-based; details: for cell cycle effect: HeLa
Experimental: For flow cytometry analysis, Hela cells were treated with the indicated concentrations of compound (I-a) for 12 hours, 24 hours and 48 hours. Cells were then harvested and washed by centrifugation in PBS. Then, 10^5 cells were fixed in 1 mL of 70% methanol at 4° C. overnight. Following two washes with PBS the cells were incubated with 50 μg·mL^−1 propidium iodide and 0.2 mg·mL^−1 RNase A/PBS for 30 min at 37° C. before analysis. The percentage of cells in the specific cell-cycle phases (G0, G1, S, G2, and M) was determined using an Accuri C6 flow cytometer (Becton Dickinson). The results are expressed as the mean±SD of three separate experiments. The significance was determined by a Student's t-test (*p<0.05, **p<0.01, ***p<0.0001, compared with the control). Flow cytometry analysis was performed using HeLa cells. […] The results are expressed as the mean±SD of three separate experiments. The significance was determined by a Student's t-test (*p<0.05, **p<0.01, ***p<0.0001, compared with the control).

[7] = tested on: HeLa cell tumors; assay: HeLa cell xenograft tumor growth in mice; assay type: in vivo; details: for weight of treated animals versus vehicle-treated animals: paclitaxel 2 to 8 mg/Kg or (I-a) 15 to 60 mg/Kg i.v. every two days during 10 days
Experimental: The effects on tumor growth of compound (I-a) and paclitaxel injected separately to the effect of a combined administration of compound (I-a) plus paclitaxel were compared in a tumor mouse model.
A first series of experiments (not shown) assessed that HeLa cell tumors were sensitive to therapeutic doses of paclitaxel. To that aim, mice bearing sizable tumors, formed of HeLa cells that have been xenografted, received intraveinous (i.v.) injections of paclitaxel (from 2 to 8 mg/Kg), every two days during 10 days. In the same experiment, the effect of compound (I-a) (from 15 to 60 mg/Kg, i.v.) injected with the same schedule was analyzed. […] The results confirmed the anti-tumor effect of high paclitaxel concentrations in this model. They also indicate that compound (I-a), when applied alone, has no significant anti-tumor activity, even at high concentrations.
A second experiment was conducted to study of the effect on tumor size of low (2 to 3 mg/Kg) paclitaxel doses in combination with different concentrations of compound (I-a).
Protocol for this combination study: 72 NMRI nude mice (5-week-old females) were injected subcutaneously with 10×10^6 exponentially dividing HeLa cells into the right flank. When tumors have reached a volume of about 200 mm 3 i.e. nine days after cell injection, mice were randomized in 9 groups of 8 mice each and drugs were injected intraveinously every two days. The first group received paclitaxel at 2 mg/kg, the second group received paclitaxel at 3 mg/Kg, the third group received compound (I-a) at 40 mg/Kg, the fourth group received compound (I-a) at 60 mg/Kg, the fifth group received a combination of compound (I-a) (40 mg/Kg) and paclitaxel (2 mg/Kg), the sixth group received a combination of compound (I-a) (40 mg/Kg) and paclitaxel (3 mg/Kg), the seventh group received a combination of compound (I-a) (60 mg/Kg) and paclitaxel (2 mg/Kg), the eight group received a combination of compound (I-a) (60 mg/Kg) and paclitaxel (3 mg/Kg) and the ninth group received the vehicle (14% DMSO, 14% Tween 80 and 72% PBS). Tumor growth was monitored three times per week with a sliding caliper.

[8] = tested on: RPE-1 cells; assay: Prestoblue viability assay on non-cancerous RPE-1 cells; assay type: cell-based
Experimental: RPE-1 cells were incubated for 72 hours with the indicated combinations of compound (I-a)/paclitaxel. The percentage of viable cells was calculated following a Prestoblue assay, as described above. Data are presented as mean±SEM of 3 independent experiments.

[9] = compound alone, HeLa cells, read-out: GI50 (50% of growth inhibition)
[10] = combination study, each compound administered separately (paclitaxel 2 or 3 mg/Kg, (I-a) 40 or 60 mg/Kg)
[11] = paclitaxel 5 nM, after 15 hours

GI50 [1, 9]: 19400 to 21800 nM
weight of treated animals versus vehicle-treated animals ([7]; first experiment): not significantly different
SMILES: Cc1cc(-n2cccc2)c(C)c2c1[nH]c1ccc(Cl)cc12 [Compound (I-a)]
cytotoxicity of the compound on its own ([1]; 12 μM, HeLa cells): not cytotoxic
effect on cell apoptosis when combined with paclitaxel [2]: synergistic effect
effect of the combination with paclitaxel on cell viability [3]: synergistic effect
% time spent growing [4]: 60.40 ± 0.25 %
% time spent in pause [4]: 39.60 ± 0.31 %
Catastrophe frequency (min^−1 ± SE) [4]: 2.74 ± 0.70 min⁻¹
Growth rate (μm/min ± SE) [4]: 10.20 ± 0.05 μm/min
Catastrophe frequency (μm^−1 ± SE) ([4]; distance-based): 0.46 ± 0.05 *** μm^−1
chromosome congression in mitotic cells ([5]; 12 μM): chromosome congression defects were visible in several mitotic cells
chromosome congression in mitotic cells ([5]; 25 μM): occurrence of such defects was increased
effect on microtubule network in interphase cells ([5]; 12-25 μM, 5-hour exposure): does not visibly perturb microtubule network
cell cycle effect ([6]; compound (I-a) 12 μM): blocked in G2/M phase
cell cycle effect ([6]; compound (I-a) 25 μM): the large majority of the cells is blocked in prometaphase
tumor size [7, 10]: no effect
tumor size ([7]; first experiment, compound (I-a) alone 15 to 60 mg/Kg i.v. every two days): did not induce a significant effect on tumor size
toxicity toward non-cancerous cells ([8]; 72 hours): does not induce additional toxicity
effect on cell viability in combination with PTX ([8]; compound at 25 μM): able to synergistically affect cell viability

GI50 [1, 9]: 1060 nM
SMILES: Cc1cc(-n2ccc(C=O)c2)c(C)c2c1[nH]c1ccc(Br)cc12 [Compound (I-h)]

GI50 [1, 9]: 2000 nM
SMILES: Cc1cc(-n2ccc(C=O)c2)c(C)c2c1[nH]c1ccc(Cl)cc12 [(I-c)]

GI50 [1, 9]: 14800 nM
SMILES: Cc1cc(-n2cccc2)c(C)c2c1[nH]c1cc(Cl)ccc12 [(I-e)]

GI50 [1, 9]: 2000 nM
SMILES: Cc1cc(-n2ccc(CO)c2)c(C)c2c1[nH]c1ccc(Cl)cc12 [Compound (I-s)]

GI50 [1, 9]: 16200 nM
SMILES: Cc1cc(-n2cccc2)c(C)c2c1[nH]c1ccc(Br)cc12 [(I-f)]

GI50 ([1]; 0.1 μM compound (I-h) added to paclitaxel, read-out: GI50 of Paclitaxel): 1.25 nM
GI50 ([1]; 0.2 μM compound (I-h) added to paclitaxel, read-out: GI50 of Paclitaxel): 1.07 nM
GI50 ([1]; 0.4 μM compound (I-h) added to paclitaxel, read-out: GI50 of Paclitaxel): 0.79 nM
GI50 ([1]; 0.8 μM compound (I-e) added to paclitaxel, read-out: GI50 of Paclitaxel): 1.36 nM
GI50 ([1]; 1.2 μM compound (I-c) added to paclitaxel, read-out: GI50 of Paclitaxel): 0.75 nM
GI50 ([1]; 1.2 μM compound (I-s) added to paclitaxel, read-out: GI50 of Paclitaxel): 0.75 nM
GI50 ([1]; 1.5 μM compound (I-e) added to paclitaxel, read-out: GI50 of Paclitaxel): 1.25 nM
GI50 ([1]; 1.5 μM compound (I-f) added to paclitaxel, read-out: GI50 of Paclitaxel): 1.36 nM
GI50 ([1]; 3 μM compound (I-a) added to paclitaxel, read-out: GI50 of Paclitaxel): 1.36 nM
GI50 ([1]; 3 μM compound (I-e) added to paclitaxel, read-out: GI50 of Paclitaxel): 1.2 nM
GI50 ([1]; 3 μM compound (I-f) added to paclitaxel, read-out: GI50 of Paclitaxel): 1.25 nM
GI50 ([1]; 3 μM compound (I-m) added to paclitaxel, read-out: GI50 of Paclitaxel): 1.5 nM
GI50 ([1]; 3 μM compound (I-n) added to paclitaxel, read-out: GI50 of Paclitaxel): 1.5 nM
GI50 ([1]; 6 μM compound (I-a) added to paclitaxel, read-out: GI50 of Paclitaxel): 1.2 nM
GI50 ([1]; 6 μM compound (I-f) added to paclitaxel, read-out: GI50 of Paclitaxel): 0.88 nM
GI50 ([1]; 6 μM compound (I-m) added to paclitaxel, read-out: GI50 of Paclitaxel): 1.5 nM
GI50 ([1]; 6 μM compound (I-n) added to paclitaxel, read-out: GI50 of Paclitaxel): 1.5 nM
GI50 ([1]; 12 μM compound (I-a) added to paclitaxel, read-out: GI50 of Paclitaxel): 0.68 nM
GI50 ([1]; 12 μM compound (I-m) added to paclitaxel, read-out: GI50 of Paclitaxel): 1.25 nM
GI50 ([1]; 12 μM compound (I-n) added to paclitaxel, read-out: GI50 of Paclitaxel): 1.25 nM
GI50 ([1]; paclitaxel alone (0 μM compound added), HeLa cells, read-out: GI50 of Paclitaxel): 1.5 nM
weight of treated animals versus vehicle-treated animals ([7]; first experiment): not significantly different
SMILES: CC(=O)O[C@H]1C(=O)[C@@]2(C)[C@H]([C@H](OC(=O)c3ccccc3)[C@]3(O)C[C@H](OC(=O)[C@H](O)[C@@H](NC(=O)c4ccccc4)c4ccccc4)C(C)=C1C3(C)C)[C@]1(OC(C)=O)CO[C@@H]1C[C@@H]2O [Paclitaxel, paclitaxel]
% of apoptosis ([2]; Paclitaxel 1 nM): 13.00 ± 0.48%
cell population blocked in G2/M phase [6, 11]: half of the cell population
cells in apoptosis [6, 11]: ~20%
tumor size [7, 10]: no effect
tumor size ([7]; first experiment, paclitaxel 4 and 8 mg/Kg i.v. every two days during 10 days): important reduction of tumor size
GI50 ([8]; Homo sapiens, 72 hours): 7 nM

From US12409162B2, “Carbazole derivatives sensitizing cells to anti-cancer agents” (CENTRE NATIONAL DE LA RECHERCHE SCIENTIFIQUE, priority 2019, dated 2025)
